The text below walks through data of publication PMC6609550, “Blockade of the forward Na^+/Ca^2+ exchanger suppresses the growth of glioblastoma cells through Ca^2+‐mediated cell death” (British Journal of Pharmacology, 2019).

In general, IC50 refers to the concentration that gives 50% inhibition. As usually defined, the viability is a read-out of living cells in per cent, often relative to untreated cells.

What all share (type): cell-based, Human
The test system of one data set is forward NCX. The data set is described as follows: Whole-cell patch-clamp recording of forward-mode NCX currents in U87 cells. The note with it: for IC50: forward NCX current measured at −110 mV, mean ± SEM, n = 4, read-out: IC50, blocking forward NCX (currents); for Inhibition of the forward NCX currents (in words): −110 mV, SEA0400 0.1–100 μM, SN‐6 and YM244769 0.1–30 μM. The procedure:
(§1) Whole‐cell patch‐clamp recording was performed using a Multiclamp 700B amplifier (Molecular Devices, Foster City, CA, USA) at room temperature. Voltage protocols were provided and current recorded via a DigiData‐1550B interface (Molecular Devices) controlled by pClamp 10 Software (Molecular Devices, RRID:SCR_011323). […] Internal solution consisted of (in mM): 120 CsCl, 20 NaCl, 2 MgCl2, 13 CaCl2, 2 Na2ATP, 20 BAPTA, and 10 HEPES at a pH 7.2. […] Series resistance was compensated by 75–85%. Linear leak and residual capacitance currents were subtracted online using a P/4 protocol of the pClamp 10. For the recording of the membrane currents related to the NCX, cells were held at −50 mV and depolarized to +60 mV, and then a voltage ramp starting from +60 to −120 mV was applied for 1,000 ms before returning back to −50 mV. The reverse and forward NCX currents were measured at +50 and −110 mV holding potentials respectively (Molinaro et al., 2008; Rahman, Inman, Kiss, & Janssen, 2012; Song, Chen, & Yu, 2014). Data were filtered at 3 KHz and digitized at sampling rates of 20 KHz. For drug application, cells were perfused with a VC‐6 Six Channel Perfusion Valve Control Systems (Warner Instruments, Greenwich, CT, USA) connected to a gravity‐fed perfusion systems.
(§2) Data are expressed as mean ± SEM and analysed by Prism 7 software, La Jolla, CA (GraphPad Prism, RRID:SCR_002798). The data and statistical analysis comply with the recommendations of the British Journal of Pharmacology on experimental design and analysis in pharmacology. Concentrations of the NCX blockers (IC50) exerting half‐maximal inhibition of NCX currents were obtained by fitting the concentration–response with the equation: I/I0*100%=Bottom+Top−Bottom/1+10^((^Log^IC50−C)*n) , where I 0 and I are current amplitudes measured in control and in the presence of NCX blockers, C is the logarithm of concentration, and n is the Hill coefficient. The statistical difference between two independent groups was analysed by Student's parametric unpaired t test. And the original data of more than two groups were assessed by the parametric one‐way ANOVA followed by a Tukey's post hoc test. The data for cell viability and Western blot were usually normalized to the control group, and were thus analysed by the non‐parametric Kruskal–Wallis test followed by a Dunn's post hoc test. Differences were considered to be significant when P < .05. Post hoc tests were conducted when the F value achieved the necessary level (P < .05) and there was no significant variance inhomogeneity.
(§3) We characterized the membrane currents associated with NCX activity in glioblastoma cells using whole‐cell patch‐clamp recording. […] The NCX current in its reverse mode (Ca^2+ entry) was measured at +50, and the forward‐mode current (Ca^2+ exit) was measured at −110 mV. The Ni^2+ (10 mM) was employed to inhibit and identify the NCX currents in its either reverse or forward mode as previously reported (Maack, Ganesan, Sidor, & O'Rourke, 2005).
In general terms: In patch-clamp work, channel activity is measured electrically.

The next data set concerns reverse NCX. The data set is described as follows: Whole-cell patch-clamp recording of reverse-mode NCX currents in U87 cells. The note with it: reverse NCX current measured at +50 mV, mean ± SEM, n = 4, read-out: IC50, blocking reverse NCX (currents). The procedure:
as §1, §2, §3

Data set [1] can be described thus: Cell viability assay (Cell Counting Kit-8), ranges given for U87 and U251 together. The note with it: human, U87 and U251 cells, read-out: Cell viability, % of control level. The procedure:
Cell viability was determined by using a Cell Counting Kit‐8 (Dojindo, Japan). Briefly, cells were harvested from flasks and plated in 96‐well cell culture plates at 5 × 10^3 per well and cultured overnight. Cells were treated with test reagents for 72 hr. Control cells were treated with cell culture medium and measured at the same time point as treatment groups. CCK‐8 solution (10 μl) was added to each well of the 96‐well plates, and the cultures were incubated for 30 min at 37°C. Absorbance at 450 nm was measured using an automatic microplate reader (Molecular Devices, San Jose, CA, USA).
(Formazan colour is commonly taken as a measure of viable cells.)

Data set [2] deals with U87 cells. The experiment in a line: Annexin V–FITC/PI apoptosis assay of U87 cells. The note with it: for Effect on apoptosis (Annexin V+ cells), compound alone: bepridil 25 μM 6–48 hr, CB‐DMB 3.5 μM 6–48 hr, KB‐R7943 25 μM 20 hr, BAPTA‐AM 10 μM 18 hr, CC‐930 10 μM, PD169316 10 μM. The procedure: (§4) U87 cells were seeded in six‐well plates (Corning, Corning, NY, USA) with 1 × 10^6 cells per well and treated with NCX blockers, BAPTA‐AM, or MAPK inhibitors. Drug treatment was performed by the person who is blinded to the experimental groups. After treatment, cells were harvested in 15‐ml tubes and washed with cold sterile PBS. After being centrifuged, cells were fixed with 70% ethanol […] at 4°C for at least 1 hr. For propidium iodide (PI) staining, cells were washed one time with PBS and then were treated with ribonuclease A (RNase; 100 μg·ml^−1) for 30 min. PI (10 μg·ml^−1) was added, and stained cells were kept in the dark at 4°C until analysis. The number of cells analysed for each sample was 10,000 events. FACS analysis was performed using the Coulter CytoFlexS flow cytometer (Beckman Coulter, CA, USA), and the percentage of cells in the G0/G1, S, and G2/M phases was determined using cell cycle analysis software, ModFit LT 5.0 (Verity Software House, Topsham, ME, USA). For the apoptosis assay, cells were harvested and washed twice with cold PBS and resuspended at a density of 1 × 10^6 cells·ml^−1 in 100 μl of binding buffer containing 5 μl of Annexin V–FITC and 5 μl of PI working solution (100 μg·ml^−1). After incubation at room temperature for 15 min in the dark, 400 μl of binding buffer was added to each sample. Apoptosis was analysed by Coulter CytoFlexS flow cytometer (Beckman Coulter) for at least 10,000 events, and data were analysed with the software, CyExpert 2.0 (Beckman Coulter).

Data set [3] concerns U87 cells. The data set is described as follows: Cell viability assay (Cell Counting Kit-8), U87. The note with it: 72 hr, CCK-8; mean ± SEM. As for the experimental part: (§5) Cell viability was determined by using a Cell Counting Kit‐8 (Dojindo, Japan). Briefly, cells were harvested from flasks and plated in 96‐well cell culture plates at 5 × 10^3 per well and cultured overnight. […] Control cells were treated with cell culture medium and measured at the same time point as treatment groups. CCK‐8 solution (10 μl) was added to each well of the 96‐well plates, and the cultures were incubated for 30 min at 37°C. Absorbance at 450 nm was measured using an automatic microplate reader (Molecular Devices, San Jose, CA, USA).
(§6) Figure 2 Effect of the Na^+/Ca^2+ exchanger (NCX) blockers on viability of human glioblastoma cell lines. (a, b) Viability of adult glioblastoma cell lines (U87 and U251) after exposure to NCX blockers bepridil, KB‐R7943, SEA0400, SN‐6, or YM244769 at 0–100 μM for 72 hr. n = 5 independent tests per group. (c) Viability of paediatric glioblastoma cell line SF188 after 72‐hr incubation with the same NCX blockers at 0–100 μM. n = 5 independent tests per group. (d) For U87, U251, and SF188 cell lines, concentration of the NCX blockers required to produce half maximal inhibition (IC50: μM, mean ± SEM) of cell viability.

The test system of data set [4] is U87 cells. The experiment in a line: Cell cycle assay (PI staining, flow cytometry) of U87 cells. The note with it: bepridil 25 μM 6–24 hr, CB‐DMB 3.5 μM 6–24 hr, KB‐R7943 25 μM 18 hr, BAPTA‐AM 10 μM 18 hr, CC‐930 10 μM, PD169316 10 μM 18 hr. The procedure: as §4
Background: A flow cytometer gives signals particle by particle.

The next data set concerns SF188 cells. The experiment in a line: Cell viability assay (Cell Counting Kit-8), SF188. The note with it: 72 hr, CCK-8; mean ± SEM. The procedure:
as §5, §6

The next data set concerns [Ca^2+]i in U87 cells. The data set is described as follows: Ca2+ imaging (Fluo-4 AM) of U87 cells. As for the experimental part: (§7) Cells were cultured in 96‐well plates at 8 × 10^3 per well and loaded with the cell membrane‐permeable Ca^2+ dye Fluo‐4 AM (5 μM) in 100‐μl HEPES‐buffered solution for 50 min. The solution contained (mM): 135 NaCl, 3 KCl, 2 CaCl2, 1 MgCl2, 10 glucose, and 10 HEPES, supplemented with 1% FBS at pH 7.4. To prepare the Ca^2+‐free solution, 2‐mM CaCl2 was replaced with 1‐mM EGTA in the HEPES‐buffered solution. The 96‐well plate containing the Fluo‐4 AM‐loaded cells was mounted in a Leica TCS SP8 confocal system (Leica Microsystems, Wetzlar, Germany). The confocal microscope armed with 488‐nm laser light was employed to excite the dynamic fluorescent signals in time and synchronously, while test regents were added to cells. To do Na^+ imaging, Fluo‐4 AM was replaced with the cell membrane‐permeable Na^+ dye Asante NaTrium Green‐2 AM (ANG‐2 AM) at 5 μM, which was excited by 514‐nm laser light. Visual inspection and fluorescent imaging were carried out at room temperature. The imaging data were analysed with the software https://leica-las-af-lite.software.informer.com/ 2.5 (Leica). The imaging traces shown are representative of at least three separate experiments; 12–18 cells were imaged in each experiment.

For a further data set, the system named is U251 cells. The data set is described as follows: Cell viability assay (Cell Counting Kit-8), U251. The note with it: 72 hr, CCK-8; mean ± SEM. As for the experimental part: as §5, §6
The next data set concerns [Na^+]i in U87 cells. The data set is described as follows: Na+ imaging (ANG-2 AM) of U87 cells. The note with it: bepridil 50 μM, KB‐R7943 50 μM, CB‐DMB 4 μM. As for the experimental part: as §7

In the case of `Cl.Cl.Nc1cccc(CNC(=O)c2ccc(Oc3ccc(OCc4cccc(F)c4)cc3)nc2)c1` [YM244769, N‐[(3‐aminophenyl)methyl]‐6‐[4‐[(3‐fluorophenyl)methoxy]phenoxy]‐3‐pyridinecarboxamide dihydrochloride], in the data set on forward NCX, the IC50 is above 30 µM and the “Inhibition of the forward NCX currents (in words)” value (shortened to “Inhibition”) is given as “without inhibition of the forward NCX currents”. In the data set with reverse NCX, the IC50 worked out at 4.5 ± 1.1 µM. In data set [1], the viability at 72 h, 10 µM lay within 87 to 100%; the viability at 72 h, 20 µM is 84 to 96%; the viability at 72 h, 50 µM was in the range of 71 to 76%.

`O[C@H]1CC[C@H](Nc2ncc3nc(Nc4c(F)cc(F)cc4F)n([C@H]4CCOC4)c3n2)CC1` [CC‐930, tanzisertib]: in the data set with U87 cells [2], the “Effect on apoptosis (Annexin V+ cells), compound alone” value is given as “did not activate apoptosis”. Further, in the data set with U87 cells [2] (bepridil 25 μM 24 hr, pretreatment BAPTA‐AM 10 μM, CC‐930 10 μM or PD169316 10 μM), the “Effect on bepridil-induced apoptosis” value was “attenuated”.

As to `CCOC(=O)C1CSC(Cc2ccc(OCc3ccc([N+](=O)[O-])cc3)cc2)N1` (stereo not shown) [SN‐6, 2‐[[4‐[(4‐nitrophenyl)methoxy]phenyl]methyl]‐4‐thiazolidinecarboxylic acid ethyl ester], in the data set with forward NCX, the IC50 was above 30 µM and the “Inhibition” value is “without inhibition of the forward NCX currents”. Besides, the IC50 with reverse NCX turned out to be 3.2 ± 1.2 µM. Also, in [1], the viability at 72 h, 10 µM lay within 87 to 97%; the viability at 72 h, 20 µM was 86 to 99%; the viability at 72 h, 50 µM is 74 to 104%.

In the case of `Cc1ccc(CNC(N)=NC(=O)c2nc(Cl)c(NCc3ccc(Cl)cc3)nc2N)c(C)c1` [CB‐DMB, [N‐(4‐chlorobenzyl)]2,4‐dimethylbenzamyl], the figures for the IC50 in the data set with U87 cells [3], with SF188 cells and in the data set with U251 cells were 3.1 ± 0.6 µM, 2.6 ± 0.1 µM and 2.7 ± 0.1 µM, respectively. The “Effect on cell cycle distribution, compound alone” value in the data set on U87 cells [4] is reported as “induced G0/G1 arrest”. In addition, the “Effect on intracellular Ca2+ pool and ER Ca2+ transporting” value in data set [Ca^2+]i in U87 cells (Ca2+‐free solution, followed by 5‐μM thapsigargin) is “did not affect the ER Ca^2+ transporters”. The “Effect on [Ca2+]i level” value in data set [Ca^2+]i in U87 cells (solution containing 2‐mM Ca2+, bepridil or KB‐R7943 25 or 50 μM, CB‐DMB 2 and 4 μM) was “elevated [Ca^2+]i”. Besides, the “Effect on apoptosis (Annexin V+ cells), compound alone” value in the data set on U87 cells [2] is given as “activated apoptosis in time‐dependent manner”. Moreover, the “Effect on intracellular Na+ [Na+]i level” value in data set [Na^+]i in U87 cells is on record as “did not change”.

On to `CCOc1ccc(Oc2ccc(OCc3cc(F)ccc3F)cc2)c(N)c1` [SEA0400, 2‐[4‐[(2,5‐difluorophenyl)methoxy]phenoxy]‐5‐ethoxyaniline], for which, in the data set with forward NCX, the IC50 is above 30 µM and the “Inhibition” value was “without inhibition of the forward NCX currents”. Besides, in the data set with reverse NCX, the IC50 is 3.6 ± 1.2 µM. In data set [1], the viability at 72 h, 10 µM was in the range of 93 to 106%; the viability at 72 h, 20 µM was in the range of 88 to 103%; the viability at 72 h, 50 µM fell in the range of 72 to 92%.
